Data: patent US8889591B2, “Herbicidal compositions comprising 4-amino-3-chloro-5-fluoro-6-(4-chloro-2-fluoro-3-methoxyphenyl)pyridine-2-carboxylic acid or a derivative thereof and bromobutide, daimuron, oxaziclomefone or pyributicarb” (Dow Agrosciences LLC, priority 2012, dated 2014)

Key:
Assay in all cases: Postemergence foliar-applied greenhouse weed control, direct-seeded rice system
BRAPP = type: in vivo
Source text: (§1) Seeds or nutlets of the desired test plant species were planted in a soil matrix prepared by mixing a loam or sandy loam soil (e.g., 28.6 percent silt, 18.8 percent clay, and 52.6 percent sand, with a pH of about 5.8 and an organic matter content of about 1.8 percent) and calcareous grit in an 80 to 20 ratio. The soil matrix was contained in plastic pots with a volume of 1 quart and a surface area of 83.6 square centimeters (cm^2). When required to ensure good germination and healthy plants, a fungicide treatment and/or other chemical or physical treatment was applied. The plants were grown for 8-22 days in a greenhouse with an approximate 14 h photoperiod which was maintained at about 29° C. during the day and 26° C. during the night. Nutrients (Peters Excel® 15-5-15 5-Ca 2-Mg and iron chelate) were applied in the irrigation solution as needed and water was added on a regular basis. Supplemental lighting was provided with overhead metal halide 1000-Watt lamps as necessary. The plants were employed for testing when they reached the first through fourth true leaf stage.
(§2) Treatments consisted of the acid or esters of 4-amino-3-chloro-5-fluoro-6-(4-chloro-2-fluoro-3-methoxy-phenyl)pyridine-2-carboxylic acid (Compound A), each formulated as an SC (suspension concentrate), and various herbicidal components alone and in combination. Forms of compound A were applied on an acid equivalent basis.
(§3) Other herbicidal components were applied on an active ingredient basis and included diamuron formulated as an EC (emulsifiable concentrate) and oxaziclomefone (technical grade material).
(§4) Treatment requirements were calculated based upon the rates being tested, the concentration of active ingredient or acid equivalent in the formulation, and a 12 mL application volume at a rate of 187 L/ha.
(§5) For treatments comprised of formulated compounds, measured amounts of compounds were placed individually in 25 mL glass vials and diluted in a volume of 1.25% (v/v) Agri-Dex® crop oil concentrated to obtain 12× stock solutions. […] Application solutions were prepared by adding an appropriate amount of each stock solution (e.g., 1 mL) and diluted to the appropriate final concentrations with the addition of 10 mL of an aqueous mixture of 1.25% (v/v) crop oil concentrate so that the final spray solutions contained 1.25+/−0.05% (v/v) crop oil concentrate.
(§6) For treatments comprised of technical compounds, weighed amounts can be placed individually in 25 mL glass vials and dissolved in a volume of 97:3 v/v acetone/DMSO to obtain 12× stock solutions. […] Application solutions can be prepared by adding an appropriate amount of each stock solution (e.g., 1 mL) and diluted to the appropriate final concentrations with the addition of 10 mL of an aqueous mixture of 1.5% (v/v) crop oil concentrate so that the final spray solutions contain 1.25% (v/v) crop oil concentrate. When technical materials are used, the concentrated stock solutions can be added to the spray solutions so that the final acetone and DMSO concentrations of the application solutions are 16.2% and 0.5%, respectively.
(§7) For treatments comprised of formulated and technical compounds, weighed amounts of the technical materials were placed individually in 25 mL glass vials and dissolved in a volume of 97:3 v/v acetone/DMSO to obtain 12× stock solutions, and measured amounts of the formulated compounds were placed individually in 25 mL glass vials and diluted in a volume of 1.5% (v/v) crop oil concentrate or water to obtain 12× stock solutions. […] Application solutions were prepared by adding an appropriate amount of each stock solution (e.g., 1 mL) and diluted to the appropriate final concentrations with the addition of an appropriate amount of an aqueous mixture of 1.5% (v/v) crop oil concentrate so that the final spray solutions contained 1.25% (v/v) crop oil concentrate. […]

ECHCG = type: in vivo, Echinochloa crusgalli (L.) Beauv.
Source text: as §1, §2, §3, §4, §5, §6, §7

ECHCO = type: in vivo, Echinochloa colona (L.) Link
Source text: as §1, §2, §3, §4, §5, §6, §7

LEFCH = type: in vivo, Leptochloa chinensis (L.) Nees
Source text: as §1, §2, §3, §4, §5, §6, §7

CYPIR = type: in vivo, Cyperus iria L.
Source text: as §1, with “stage. […]” for “stage.”
as §4
(§8) For treatments comprised of formulated compounds, measured amounts of compounds were placed individually in 25 mL glass vials and diluted in a volume of 1.25% (v/v) Agri-Dex® crop oil concentrated to obtain 12× stock solutions. […]
(§9) For treatments comprised of formulated and technical compounds, weighed amounts of the technical materials were placed individually in 25 mL glass vials and dissolved in a volume of 97:3 v/v acetone/DMSO to obtain 12× stock solutions, and measured amounts of the formulated compounds were placed individually in 25 mL glass vials and diluted in a volume of 1.5% (v/v) crop oil concentrate or water to obtain 12× stock solutions. […]

SCPJU = type: in vivo, Schoenoplectus juncoides (Roxb.) Palla
Source text: as §1, with “stage. […]” for “stage.”
as §4, §8, §9

[1] = Compound A Benzyl Ester 4.38 gae/ha alone
[2] = Compound A Benzyl Ester 8.75 gae/ha alone

**Q.** For `COc1c(Cl)ccc(-c2nc(C(=O)OCc3ccccc3)c(Cl)c(N)c2F)c1F` [Compound A Benzyl Ester], which “Visual Weed Control (%) - 20 DAA BRAPP Obs” value (BRAPP; [1]) is on record?
**A.** 50%

**Q.** And the “Visual Weed Control (%) - 20 DAA BRAPP Obs” value (BRAPP; [2])?
**A.** 70%

**Q.** And the “Visual Weed Control (%) - 20 DAA ECHCG Obs” value (ECHCG; [1])?
**A.** 40%

**Q.** What about the “Visual Weed Control (%) - 20 DAA ECHCG Obs” value (ECHCG; [2]) of the same compound?
**A.** 90%

**Q.** What about the “Visual Weed Control (%) - 20 DAA ECHCO Obs” value (ECHCO; [1]) of the same compound?
**A.** 40%

**Q.** What about the “Visual Weed Control (%) - 20 DAA ECHCO Obs” value (ECHCO; [2]) of the same compound?
**A.** 90%

**Q.** What about the “Visual Weed Control (%) - 20 DAA LEFCH Obs” value (LEFCH; [1]) of the same compound?
**A.** 10%

**Q.** What about the “Visual Weed Control (%) - 20 DAA LEFCH Obs” value (LEFCH; [2]) of the same compound?
**A.** 20%

**Q.** And the “Visual Weed Control (%) - 20 DAA LEFCH Obs” value (LEFCH; Compound A Benzyl Ester 17.5 gae/ha alone)?
**A.** 50%

**Q.** What about the “Visual Weed Control (%) - 22 DAA CYPIR Obs” value (CYPIR; [1]) of the same compound?
**A.** 25%

**Q.** And the “Visual Weed Control (%) - 22 DAA CYPIR Obs” value (CYPIR; [2])?
**A.** 50%

**Q.** And the “Visual Weed Control (%) - 22 DAA SCPJU Obs” value (SCPJU; [1])?
**A.** 75%

**Q.** What about the “Visual Weed Control (%) - 22 DAA SCPJU Obs” value (SCPJU; [2]) of the same compound?
**A.** 80%
